Measured values reported in patent US11542287B2, “Alkyldiphenylmethane protective agent” (priority 2017, dated 2023).
In brackets after ≈: the same amount, converted by molar mass. Peptide text beside a SMILES is read from it.

Assay: physchem
Type: physicochemical
Method: Results of measurement of solubility of a peptide protected with an alkyldiphenylmethane protective agent of the present invention are shown below.
Peptide used as model: H-Phe-Leu-Gly-NH2
H-Phe-Leu-Gly-NH2 and H-Phe-Leu-Gly-NH-(TIPS2-Dpm(Me)) were synthesized, CPME (cyclopentyl methyl ether) was saturated with each of the compounds at 25° C., and the solubility was measured.
As a result, merely 0.2 mM of H-Phe-Leu-Gly-NH2 to which an alkyldiphenylmethane protective agent was not bonded was dissolved in CPME. […] H-Phe-Leu-Gly-NH2 and H-Phe-Leu-Gly-NH-(TIPS2-Dpm(Me)) represent the following structures.

SMILES	solubility [µM]	increase in solubility versus H-Phe-Leu-Gly-NH2
CC(C)C[C@H](NC(=O)[C@@H](N)Cc1ccccc1)C(=O)NCC(N)=O [H-Phe-Leu-Gly-NH2, reference compound] (H-Phe-Leu-Gly-NH2)	200 (≈ 0.0669 mg/mL)	–
CC(C)C[C@H](NC(=O)[C@@H](N)Cc1ccccc1)C(=O)NCC(=O)NC(C)(c1ccc(OCCCCCCCCCCCO[Si](C(C)C)(C(C)C)C(C)C)cc1)c1ccc(OCCCCCCCCCCCO[Si](C(C)C)(C(C)C)C(C)C)cc1 [H-Phe-Leu-Gly-NH-(TIPS2-Dpm(Me))]	≥ 838000	≥ 4,190 fold
